The target in assay [1] is T1, mineral corticoid receptor (MR) (Homo sapiens, UniProt P08235).
T1 construct: made in house
T1 sequence (P08235 1-984): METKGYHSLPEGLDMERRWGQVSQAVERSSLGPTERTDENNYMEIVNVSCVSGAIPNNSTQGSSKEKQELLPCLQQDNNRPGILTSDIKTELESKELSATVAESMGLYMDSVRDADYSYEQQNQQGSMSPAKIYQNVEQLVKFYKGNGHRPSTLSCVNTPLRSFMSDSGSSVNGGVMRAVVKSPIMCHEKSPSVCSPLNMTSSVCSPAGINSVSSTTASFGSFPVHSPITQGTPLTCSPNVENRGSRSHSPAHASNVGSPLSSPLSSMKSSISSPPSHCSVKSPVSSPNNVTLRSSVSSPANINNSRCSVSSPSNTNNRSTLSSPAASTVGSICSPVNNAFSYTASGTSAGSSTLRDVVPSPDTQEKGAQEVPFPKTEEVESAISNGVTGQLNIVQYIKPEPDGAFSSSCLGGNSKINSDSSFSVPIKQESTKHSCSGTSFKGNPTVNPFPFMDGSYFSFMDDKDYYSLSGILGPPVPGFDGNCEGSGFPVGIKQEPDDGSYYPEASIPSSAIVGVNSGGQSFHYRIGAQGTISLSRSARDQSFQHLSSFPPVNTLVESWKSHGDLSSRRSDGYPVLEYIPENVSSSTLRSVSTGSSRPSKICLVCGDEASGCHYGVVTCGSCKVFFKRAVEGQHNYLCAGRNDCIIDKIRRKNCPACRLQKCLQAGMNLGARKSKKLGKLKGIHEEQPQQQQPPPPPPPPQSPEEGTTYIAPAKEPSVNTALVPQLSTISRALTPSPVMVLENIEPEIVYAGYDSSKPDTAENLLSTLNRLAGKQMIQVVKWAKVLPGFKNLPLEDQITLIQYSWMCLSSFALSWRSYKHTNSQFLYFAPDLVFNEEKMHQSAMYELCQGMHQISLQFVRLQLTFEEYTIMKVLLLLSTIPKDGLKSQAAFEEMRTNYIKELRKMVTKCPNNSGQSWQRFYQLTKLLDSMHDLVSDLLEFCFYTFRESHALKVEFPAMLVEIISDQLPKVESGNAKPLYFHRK
The assay can be described thus: Binding to the mineral corticoid receptor, recombinantly produced receptor.

The next assay has as its target T2, androgen receptor (AR) (Homo sapiens, UniProt P10275).
T2 construct: made in house
T2 sequence (P10275 1-920): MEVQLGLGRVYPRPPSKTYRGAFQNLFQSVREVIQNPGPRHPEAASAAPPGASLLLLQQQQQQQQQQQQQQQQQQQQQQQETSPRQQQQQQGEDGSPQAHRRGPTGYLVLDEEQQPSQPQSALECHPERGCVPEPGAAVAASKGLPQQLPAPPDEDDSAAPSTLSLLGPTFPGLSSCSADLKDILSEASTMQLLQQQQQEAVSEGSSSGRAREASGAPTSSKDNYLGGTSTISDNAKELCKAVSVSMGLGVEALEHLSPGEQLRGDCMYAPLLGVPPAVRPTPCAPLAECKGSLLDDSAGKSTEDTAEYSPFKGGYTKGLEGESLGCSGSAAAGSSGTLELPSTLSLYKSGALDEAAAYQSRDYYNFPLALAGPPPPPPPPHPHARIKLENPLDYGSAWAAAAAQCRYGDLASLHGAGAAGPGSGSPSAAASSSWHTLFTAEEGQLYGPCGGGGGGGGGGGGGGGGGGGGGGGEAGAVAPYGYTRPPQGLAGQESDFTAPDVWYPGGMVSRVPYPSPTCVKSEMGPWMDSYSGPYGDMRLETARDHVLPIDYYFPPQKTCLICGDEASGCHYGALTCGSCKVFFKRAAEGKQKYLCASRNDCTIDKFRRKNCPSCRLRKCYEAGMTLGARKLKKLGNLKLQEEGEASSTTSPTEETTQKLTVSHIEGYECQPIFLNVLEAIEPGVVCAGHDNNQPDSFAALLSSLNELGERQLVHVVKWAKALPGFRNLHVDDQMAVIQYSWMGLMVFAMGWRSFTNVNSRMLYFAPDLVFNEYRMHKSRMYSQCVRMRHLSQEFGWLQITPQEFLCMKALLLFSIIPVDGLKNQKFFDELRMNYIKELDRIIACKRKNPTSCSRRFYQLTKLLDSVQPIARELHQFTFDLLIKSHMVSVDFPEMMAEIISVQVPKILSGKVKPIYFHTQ
The assay can be described thus: Binding to the androgen receptor, recombinantly produced receptor.

Assay [2] concerns the target T3, progesterone receptor (PR) (Homo sapiens, UniProt P06401).
T3 construct: made in house
T3 sequence (P06401 1-933): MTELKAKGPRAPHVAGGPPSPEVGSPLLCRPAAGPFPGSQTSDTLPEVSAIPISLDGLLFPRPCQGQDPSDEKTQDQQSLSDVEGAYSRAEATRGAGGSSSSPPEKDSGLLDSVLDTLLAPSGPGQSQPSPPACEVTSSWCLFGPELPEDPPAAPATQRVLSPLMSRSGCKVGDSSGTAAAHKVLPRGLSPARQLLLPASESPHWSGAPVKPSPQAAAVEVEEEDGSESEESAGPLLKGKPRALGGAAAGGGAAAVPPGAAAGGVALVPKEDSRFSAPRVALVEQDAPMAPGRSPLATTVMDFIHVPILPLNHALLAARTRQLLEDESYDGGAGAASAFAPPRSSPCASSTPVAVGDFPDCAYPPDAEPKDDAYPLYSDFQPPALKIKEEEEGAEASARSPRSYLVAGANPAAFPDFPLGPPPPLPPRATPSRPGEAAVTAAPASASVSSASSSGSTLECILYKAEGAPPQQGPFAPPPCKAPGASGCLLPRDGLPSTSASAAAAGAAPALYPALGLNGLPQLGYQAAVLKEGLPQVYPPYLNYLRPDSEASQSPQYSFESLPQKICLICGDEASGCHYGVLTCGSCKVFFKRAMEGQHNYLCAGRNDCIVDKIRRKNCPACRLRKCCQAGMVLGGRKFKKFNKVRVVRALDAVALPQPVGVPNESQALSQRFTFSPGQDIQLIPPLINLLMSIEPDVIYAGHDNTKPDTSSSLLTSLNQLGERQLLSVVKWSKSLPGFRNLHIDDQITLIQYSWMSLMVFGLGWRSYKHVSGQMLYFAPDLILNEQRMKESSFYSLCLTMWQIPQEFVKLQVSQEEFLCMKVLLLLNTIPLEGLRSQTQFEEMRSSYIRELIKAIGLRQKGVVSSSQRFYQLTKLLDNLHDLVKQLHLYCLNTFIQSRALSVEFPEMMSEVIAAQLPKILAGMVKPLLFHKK
Put plainly: Binding to the progesterone receptor, recombinantly produced receptor.

Assay [3] deals with glucocorticoid receptor (GR) (Homo sapiens, UniProt P04150). Put plainly: biochemical. The source says: The binding of the substances to the glucocorticoid receptor (GR) and other steroid hormone receptors (mineral corticoid receptor (MR), progesterone receptor (PR) and androgen receptor (AR)) is examined with the aid of recombinantly produced receptors. Cytosol preparations of Sf9 cells, which had been infected with recombinant baculoviruses that code for the GR, are used for the binding studies.
Chain of glucocorticoid receptor (GR) (P04150 whole entry, species assumed): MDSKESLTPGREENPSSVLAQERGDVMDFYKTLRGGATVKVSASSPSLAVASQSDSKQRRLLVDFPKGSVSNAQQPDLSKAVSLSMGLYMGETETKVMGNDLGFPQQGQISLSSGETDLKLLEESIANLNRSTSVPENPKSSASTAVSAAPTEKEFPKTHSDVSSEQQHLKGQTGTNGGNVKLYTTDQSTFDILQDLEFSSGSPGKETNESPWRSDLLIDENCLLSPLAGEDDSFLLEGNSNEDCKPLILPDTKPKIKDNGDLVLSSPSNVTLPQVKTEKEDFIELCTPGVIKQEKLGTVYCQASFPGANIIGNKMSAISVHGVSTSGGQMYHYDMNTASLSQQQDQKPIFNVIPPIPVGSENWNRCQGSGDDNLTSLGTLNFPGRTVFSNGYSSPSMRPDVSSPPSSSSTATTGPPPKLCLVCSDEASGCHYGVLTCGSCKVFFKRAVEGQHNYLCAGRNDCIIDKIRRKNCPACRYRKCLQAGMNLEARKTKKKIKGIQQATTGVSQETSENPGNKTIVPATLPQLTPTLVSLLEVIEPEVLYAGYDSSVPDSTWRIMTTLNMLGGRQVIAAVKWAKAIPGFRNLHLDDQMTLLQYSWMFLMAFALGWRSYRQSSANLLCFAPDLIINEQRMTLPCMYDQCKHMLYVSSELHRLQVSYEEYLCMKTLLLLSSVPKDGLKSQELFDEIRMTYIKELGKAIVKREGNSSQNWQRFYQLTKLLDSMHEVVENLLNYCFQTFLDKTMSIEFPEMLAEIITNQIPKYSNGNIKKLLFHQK

Regarding `CC(C)(CC(O)(CNc1cccc2ncccc12)C(F)(F)F)c1cc(F)ccc1O` (stereo not shown) [Example 4], the IC50 in assay [1] was above 1000 nM; at androgen receptor (AR), above 1000 nM; in assay [2] it was above 1000 nM; in assay [3], 0.6 to 1.3 nM.

One may read the IC50 as the concentration needed to halve the response being measured.

The values above are taken from patent publication US6897224B2, “Quinoline and isoquinoline derivatives, a process for their production and their use as inflammation inhibitors” (Schering AG, priority 2002, dated 2005).
